Assay: Relaxivity measurements at 1.4 T
Assay type: physicochemical
Details: 1.41 T (60 MHz), 37°C, normalized to Mn
Protocol: T1 and T2 relaxation time were measured at 60 MHz (1.41 T) and 37°C using a Bruker mq60 minispec contrast agent analyzer. Manganese containing chelates were dissolved in different media at and each relaxivity measurement was performed using three different Mn concentrations. Measurement of r1 and r2 relaxivities were performed using concentrations of 0, 0.25, 0.5 and 1mM Mn in water and human plasma containing heparin as anticoagulant. The relaxivities ri (where i=1, 2) were calculated based on the measured relaxation rates Ri in water and plasma: ri = (Ri−Ri(0))/CMn [formula] where Ri(0) represent the relaxation rate of the respective solvent and CMn the concentration of the compound normalized to Manganese. The Manganese concentrations of the investigated solutions were verified by Inductively Coupled Plasma Mass Spectrometry (ICP-MS Agilent 7500a, Waldbronn, Germany). Table 1: Relaxivities of investigated compound in water and human plasma at 1.41 T. All values are measured at 37°C and normalized to Mn and given in L mmol-1 s-1.

r1 (human plasma (heparin as anticoagulant)): 6.4 L mM^-1s^-1
r1 (water): 5.0 L mM^-1s^-1
Compound: O=C(CCC(C(=O)[O-])N1CCOCCN(C(CCC(=O)NC[C@H](O)[C@@H](O)[C@H](O)[C@H](O)CO)C(=O)[O-])Cc2cccc(n2)C1)NC[C@H](O)[C@@H](O)[C@H](O)[C@H](O)CO.[Mn+2] (stereo partly drawn) [Example 2, manganese(^2+) 2-[9-(1-carboxylato-4-oxo-4-{[(2S,3R,4R,5R)-2,3,4,5,6-pentahydroxyhexyl]amino}butyl)-6-oxa-3,9,15-triazabicyclo[9.3.1]pentadeca-1(15),11,13-trien-3-yl]-5-oxo-5-{[(2S,3R,4R,5R)-2,3,4,5,6-pentahydroxyhexyl]amino}pentanoate]

Reference: EP4464708A1, “NEW CONTRAST AGENTS FOR USE IN DIAGNOSTIC IMAGING” (Bayer Aktiengesellschaft, priority 2023, dated 2024)
